# Experimental data published in patent US20130079322A1, “CRYSTALLINE OF CARBAPENEM DERIVATIVE OR ITS HYDRATE, PREPARATION METHODS AND USES THEREOF” (priority 2010, published 2013).
# Key:
# [1] = Stability assay at a high temperature of 60° C. (HPLC content and related substances); type: physicochemical
# Description: Condition for the assay: sampled after placing for 5 days, 10 days at a high temperature of 60° C., and the results thus obtained were compared with those obtained at day 0 by measuring related substances and contents thereof. The samples were sealed with plastic bags coated with aluminium foils during the assay. Amorphous compound A (refers to the amorphous for short hereinafter): self-prepared. Preparation method: see the preparation of amorphous compound A in the above preparative examples. The purity is 96.66%, and the batch number is 110901. The crystalline form I of compound A (refers to the crystalline form I for short hereinafter): prepared by example 1 of the Specification. The batch number is 20100315-4. Content determination is performed by external standard method using the sample at day 0 as control according to the high performance liquid chromatography in Chinese Pharmacopoeia, 2010 edition, appendix VD. Determination of related substances is performed by area normalization method according to the high performance liquid chromatography in Chinese Pharmacopoeia, 2010 edition, appendix VD. Mobile phase: A: 0.02 M diammonium phosphate (pH=5.2 adjusted by phosphoric acid):acetonitrile=95:5. • B: 0.02 M diammonium phosphate (pH=5.2 adjusted by phosphoric acid):acetonitrile=30:70. Gradient condition: see Table 1 The experimental results obtained: see Table 2
# [2] = tested on: Gram-positive and Gram-negative bacteria; assay: Antibacterial activity against clinically isolated strains (overall conclusion); type: cell-based; settings: against both Gram-positive and Gram-negative bacteria
# Description: (§1) Test strains: the following clinically isolated strains were provided by public organizations.
# Gram-positive bacteria: methicillin sensitive Staphylococcus aureus (MSSA), and penicillin sensitive Streptococcus pneumoniae;
# (§2) Gram-negative bacteria: ESBLs negative Escherichia coli, ESBLs positive Escherichia coli, Haemophilus influenzae, and Moraxelle catarrhalis.
# (§3) Test compound: the crystalline form I of compound A
# (§4) Experimental method: standard agar double dilution method was adopted.
# Moraxelle catarrhalis = assay: Antibacterial activity, standard agar double dilution method; type: cell-based; settings: clinically isolated strains
# Description: as §1, §2, §3, §4
# [3] = 60° C., day 5 compared with day 0
# [4] = 60° C., day 10 compared with day 0
"Content % ([1]; 60° C., day 5, sample at day 0 as control)","Related substance % open ring % ([1]; 60° C., day 5, sealed)","Related substance % total % ([1]; 60° C., day 5, sealed)","Content decrease % [1, 3]","Related substance % increase open ring % [1, 3]","Related substance % increase total % [1, 3]",Related substance % open ring % ([1]; day 0),Related substance % total % ([1]; day 0),"Stability as compared with the amorphous of compound A ([1]; 60° C., 5 and 10 days)","Content decrease % [1, 4]","Related substance % increase open ring % [1, 4]","Related substance % increase total % [1, 4]",MIC90 (Moraxelle catarrhalis),Compound,Antibacterial activity [2]
73.16%,3.328%,20.675%,26.84%,2.852%,11.38%,0.476%,9.295%,–,–,–,–,–,C[C@@H](O)[C@H]1C(=O)N2C(C(=O)O)=C(S[C@@H]3CN[C@H](C(=O)NCc4ccc(S(N)(=O)=O)cc4)C3)[C@H](C)[C@H]12 [The amorphous],–
–,–,–,3.73%,0.646%,0.841%,–,–,more stable,3.95%,0.984%,1.167%,8 ng/mL,C[C@@H](O)[C@H]1C(=O)N2C(C(=O)O)=C(S[C@@H]3CN[C@H](C(=O)NCc4ccc(S(N)(=O)=O)cc4)C3)[C@H](C)[C@H]12 [The crystalline form I],excellent antibacterial activity
